Primed or numbered codes have the meaning given here. Where no end group is shown, it is not given here. The star is where a group is joined. BODIPY(FL) = CC1=CC(C)=[N+]2C1=Cc1ccc(CCC(=O)*)n1[B-]2(F)F; Dabcyl′ = quencher
Legend:
[1] = test system: co-cultures of E0771 cells and IL-2-activated CD8+ T cells; test: Image-based phenotypic drug screen (H5 fluorescence); conditions: for fluorescence signals compared to IL-2 only controls: combination with IL-2
Method: E0771 and CD8+ T cells were co-cultured for 2 days and then incubated with IL-2 (100 U mL^−1) and each individual drug at their respective working concentrations for 3 h (Table S5).
Wells received 100 U mL^−1 IL-2 (low IL-2) for T cell viability. […] Data as means ± SEM (n = 8). […] Data as means ± SD (n = 5). P-value from two-tailed t-tests.
E0771 (750 cells/well) and freshly isolated murine CD8+ T cells (6000 cells/well) were plated in 384-well plates as described above. After 2 days of co-culture at 37 °C, cells were further incubated with IL-2 alone (100 or 250 U mL^−1) or IL-2 (100 U mL^−1) in combination with drugs (Table S5) for 3 h. […] Briefly, nuclei were used as seeds to create a pseudo-cell area and GzmB-positive puncta were detected using a top-hat filter (pixel size: 10, circle shape) followed by an average filter (3 × 3 pixels).

[2] = test system: E0771 cells; test: Flow cytometry of E0771 cells in co-culture with CD8+ T cells; assay type: cell-based, mouse; conditions: E0771 alone, staurosporine 1 μM, 1 h
Method: Treatments with staurosporine (1 μM) were for 1 h. […]
mouse CD8+ T cells and mKate-E0771 cells. b) Representative flow cytometry contour plots of E0771 cells in: left) co-cultures of E0771 cells (50,000 cells well-1) and activated […]
cells well-1), right) E0771 alone cells treated with staurosporine (1 µM, 1 h). c) Representative flow cytometry contour plots of CD8+ T cells in: left) co-cultures of E0771 […]
2 h) murine CD8+ T cells (200,000 cells well -1). All cultures in b) and c) were equally […]
with and without preincubation of the GzmB inhibitor Ac -IEPD-CHO. Data presented as […]
633/670 nm (for AF647-Annexin V). Representative plots from independent experiments performed in triplicate. Source data in d provided as a Source Data file.

[3] = test system: E0771 cells alone or in co-culture with CD8+ T cells; test: Hit validation of AZD5363 by flow cytometry; assay type: cell-based, mouse
Method: (from 3 independent experiments) in E0771 cells alone (50,000 cells well-1) or in co-culture with CD8+ T cells (200,000 cells well-1) and treatment of AZD5363 (1 μM). concentration: 1,000 U mL-1. Excitation/emission wavelengths: 488 nm/525 nm. b) Representative flow cytometry contour plots (from 3 independent experiments; gating […]
(1 picture or pasted object on this page, not shown here) […]
strategy shown in Supplementary Figure 7) of E0771 cells (50,000 cells well-1) after co- […]
633/670 nm (for AF647-Annexin V). c) Percentages of E0771 cells that were double - […]
in a). Data presented as mean values±SEM (n=3). […]
obtained from ONE-ANOVA tests with multiple c omparisons. Source data in c provided

[4] = target: T1, human GzmB (hGzmB) (Homo sapiens, UniProt P10144); test: Fluorescence assay with recombinant hGzmB (fluorogenic response, time course); assay type: biochemical
T1 construct: For active GzmB vs pro-GzmB, p < 0.0001
Method: Fluorescence-based assays with different enzymes were performed in the appropriate buffers. Probes (25 μM) were added to enzymes (20 nM or at the indicated concentrations) in 384-well plates and their fluorescence emission was recorded at 450 nm (for AMC) or 510 nm (for BODIPY) at 37 °C using a Synergy H1 Hybrid spectrophotometer. In experiments with Ac-IEPD-CHO (50 μM), the inhibitor was preincubated for 1 h with GzmB before the addition of any probe.

[5] = target: T1, human GzmB (hGzmB); test: HPLC conversion of fluorogenic peptides by hGzmB; assay type: biochemical; conditions: probe 25 μM (Ac-IEPD-AMC 50 μM), TRIS buffer, 37 °C, HPLC-UV
Method: Supplementary Figure 1. Reactivity of fluorogenic substrates against human GzmB and limits of detection. a) Reaction conversion rates (by HPLC-UV detection at 350 nm) for Ac-IEPD-AMC (50 μM) in TRIS buffer (see Methods) at 37 °C containing different concentrations of hGzmB. Data presented as mean values±SEM (n=3 independent biological experiments). b) Reaction conversion rates (by HPLC-UV detection at 500 nm) for the tetrapeptide T1 (25 μM) in TRIS buffer at 37 °C containing different concentrations of hGzmB. Data presented as mean values±SEM (3 independent biological experiments).
Source data provided as a Source Data file.
(1 picture or pasted object on this page, not shown here)
Supplementary Table 1. Chemical structures and reactivity of FRET-based tetrapeptides against human GzmB.
Code Structure Linker Quencher HPLC conversion HPLC conversion […]
Supplementary Table 2. Sequences and reactivity of FRET-based hexapeptides against […]
Code Peptide sequence HPLC conversion
H1 Ile-Glu-Pro-Asp-Ala-Gly 75%
H2 Ile-Glu-Pro-Asp-Ser-Gly 80%
H3 Ile-Glu-Pro-Asp-Ser-Leu 80%
H4 Ile-Glu-Pro-Asp-Trp-Leu 82%
H6 Ile-Glu-Pro-Asp-Trp-Arg 40%
H7 Ile-Glu-Pro-Asp-Arg-Leu 60%
H5m Ile-Glu-Phe-Asp-Ala-Leu 70%

[6] = test system: recombinant mouse GzmB; test: Reactivity against recombinant mouse GzmB (fluorescence); assay type: biochemical; conditions: probe 25 μM, 90 min, 37 °C, mouse pro-GzmB 100 nM pre-activated with cathepsin C
Method: and H5m (both at 25 μM) after incubation for 90 min at 37 °C with recombinant mouse
pro-GzmB (100 nM) after pre-activation with mouse cathepsin C (5.5 μg mL-1) for 4 h.
Excitation/emission wavelengths: 450 nm /510 nm. Data presented as mean values±SEM
(3 independent experiments with 3 technical replicates). Source data provided as a […]

[7] = target: T2, recombinant human GzmB (Homo sapiens, UniProt P10144); test: Kinetic measurements (Michaelis-Menten) with recombinant hGzmB; assay type: biochemical; conditions: Supplementary Table 4, recombinant human GzmB
T2 construct: For active GzmB vs pro-GzmB, p < 0.0001
Method: Fluorescence-based assays with different enzymes were performed in the appropriate buffers. […] In experiments with Ac-IEPD-CHO (50 μM), the inhibitor was preincubated for 1 h with GzmB before the addition of any probe.
Supplementary Table 4. Kinetic values determined for hexapeptides H2-H5 against
Probe Sequence kcat kcat / KM

[8] = target: human granzyme B (human) (UniProt P10144)
[9] = probe 25 μM, hGzmB 20 nM, Data 1
[10] = probe 25 μM, hGzmB 20 nM, Data 2
[11] = probe 25 μM, hGzmB 20 nM, Data 3

T2 sequence (P10144 21-247): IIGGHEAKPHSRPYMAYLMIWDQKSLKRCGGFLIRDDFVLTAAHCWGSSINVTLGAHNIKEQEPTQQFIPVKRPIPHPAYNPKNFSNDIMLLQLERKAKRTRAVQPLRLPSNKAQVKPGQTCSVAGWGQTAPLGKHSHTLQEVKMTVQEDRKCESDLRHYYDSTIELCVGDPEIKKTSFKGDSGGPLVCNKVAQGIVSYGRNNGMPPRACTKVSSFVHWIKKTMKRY
T1 sequence (P10144 21-247): as above
human granzyme B (human), sequence (P10144 21-247): as above

CC(=O)O[C@@]12CO[C@@H]1C[C@H](O)[C@@]1(C)C(=O)[C@H](O)C3=C(C)[C@@H](OC(=O)[C@H](O)[C@@H](NC(=O)OC(C)(C)C)c4ccccc4)C[C@@](O)([C@@H](OC(=O)c4ccccc4)[C@H]21)C3(C)C [C11, Docetaxel]
fluorescence signals compared to IL-2 only controls [1]: Increased

C#CC[C@H](c1nc2cc(Cl)ccc2c(=O)n1Nc1ccccc1)N(CCCN)C(=O)c1cccc(Cl)c1F [C12, ARQ621]
fluorescence signals compared to IL-2 only controls [1]: Increased

C/C(=C\c1csc(C)n1)[C@@H]1C[C@@H]2O[C@]2(C)CCC[C@H](C)[C@H](O)[C@@H](C)C(=O)C(C)(C)[C@@H](O)CC(=O)O1 [C13, Epothilone B]
fluorescence signals compared to IL-2 only controls [1]: Increased

CO[C@@]12[C@H](COC(N)=O)C3=C(C(=O)C(C)=C(N)C3=O)N1C[C@@H]1N[C@@H]12 [C18, Mitomycin C]
fluorescence signals compared to IL-2 only controls [1]: Increased

Cn1nnc2c(C(N)=O)ncn2c1=O [C20, Temozolomide]
fluorescence signals compared to IL-2 only controls [1]: Increased

CC(=O)N[C@@H](CSC(=O)[C@]1([C@@H](O)C(C)C)NC(=O)[C@H](C)[C@@H]1O)C(=O)O [C30, Lactacystin]
fluorescence signals compared to IL-2 only controls [1]: Increased

CN[C@@H]1C[C@H]2O[C@@](C)([C@@H]1OC)n1c3ccccc3c3c4c(c5c6ccccc6n2c5c31)C(=O)NC4 [staurosporine, reference compound]
Annexin V +ve E0771 cells ([2]; replicate 1): 84%
viable E0771 cells ([2]; replicate 1): 13%
Annexin V +ve E0771 cells ([2]; replicate 2): 62%
viable E0771 cells ([2]; replicate 2): 37%
Annexin V +ve E0771 cells ([2]; replicate 3): 71%
viable E0771 cells ([2]; replicate 3): 27%

AZD5363 [C5]
E0771 cells double-stained with probe H5 and AF647-Annexin V ([3]; AZ only (AZD5363 1 μM), Data1): 2%
E0771 cells double-stained with probe H5 and AF647-Annexin V ([3]; AZ only (AZD5363 1 μM), Data2): 2%
E0771 cells double-stained with probe H5 and AF647-Annexin V ([3]; AZ only (AZD5363 1 μM), Data3): 3%
cancer cell death and H5 labeling, drug on its own ([3]; AZD5363 1 μM alone, E0771 cells): did not induce significant cancer cell death
cancer cell death and H5 emission, drug with IL-2 ([3]; AZD5363 1 μM with 100 U mL^−1 IL-2, CD8+ T cell-E0771 co-cultures): caused significant cancer cell death
E0771 cells double-stained with probe H5 and AF647-Annexin V ([3]; IL-2+AZ (AZD5363 1 μM), co-culture with CD8+ T cells, Data1): 33%
E0771 cells double-stained with probe H5 and AF647-Annexin V ([3]; IL-2+AZ (AZD5363 1 μM), co-culture with CD8+ T cells, Data2): 42%
E0771 cells double-stained with probe H5 and AF647-Annexin V ([3]; IL-2+AZ (AZD5363 1 μM), co-culture with CD8+ T cells, Data3): 44%
fluorescence signals compared to IL-2 only controls [1]: Increased
H5 fluorescence staining in the screen ([1]; drug 1 μM + IL-2 100 U mL^−1, 3 h): brightest H5 fluorescence staining

Ac-IEPD-aldehyde [reference compound]
effect on the fluorescence response of H5 to hGzmB ([4]; Ac-IEPD-CHO 50 μM preincubated 1 h with GzmB): markedly reduced

IEFDAL [H5m, hexapeptide analogue containing phenylalanine, IEFDAL]
HPLC conversion (20 nM hGzmB, 2 h) [5]: 70%
Fluorescence fold increase ([6]; Data 1): 5.6
Fluorescence fold increase ([6]; Data 2): 7.1
Fluorescence fold increase ([6]; Data 3): 5.2
Fluorescence fold increase ([6]; Data 4): 8.2
Fluorescence fold increase ([6]; Data 5): 10.5
Fluorescence fold increase ([6]; Data 6): 7.7
Fluorescence fold increase ([6]; Data 7): 9.6
Fluorescence fold increase ([6]; Data 8): 8.2
Fluorescence fold increase ([6]; Data 9): 12.2

IEPDAG [H1, FRET hexapeptide IEPDAG]
S/N ratios [4, 9]: 61
t50 [4, 9]: 32 min
S/N ratios [4, 10]: 48
t50 [4, 10]: 38 min
S/N ratios [4, 11]: 55
t50 [4, 11]: 36 min
HPLC conversion (20 nM hGzmB, 2 h) [5]: 75%

IEPDRL [H7, negative control FRET hexapeptide IEPDRL]
S/N ratios [4, 10]: 14
S/N ratios [4, 11]: 13
HPLC conversion (20 nM hGzmB, 2 h) [5]: 60%

IEPDSG [H2, FRET hexapeptide IEPDSG]
S/N ratios [4, 9]: 67
t50 [4, 9]: 13 min
S/N ratios [4, 10]: 70
t50 [4, 10]: 15 min
S/N ratios [4, 11]: 69
t50 [4, 11]: 14 min
HPLC conversion (20 nM hGzmB, 2 h) [5]: 80%
kcat [7]: 11.2 s⁻¹

IEPDSL [H3, FRET hexapeptide IEPDSL]
S/N ratios [4, 9]: 68
t50 [4, 9]: 15 min
S/N ratios [4, 10]: 76
t50 [4, 10]: 18 min
S/N ratios [4, 11]: 73
t50 [4, 11]: 14 min
HPLC conversion (20 nM hGzmB, 2 h) [5]: 80%
kcat [7]: 23.6 s⁻¹

IEPDWL [H4, FRET hexapeptide IEPDWL]
S/N ratios [4, 9]: 78
t50 [4, 9]: 51 min
S/N ratios [4, 10]: 73
t50 [4, 10]: 55 min
S/N ratios [4, 11]: 75
t50 [4, 11]: 56 min
HPLC conversion (20 nM hGzmB, 2 h) [5]: 82%
kcat [7]: 28.2 s⁻¹

IEPDWR [H6, negative control FRET hexapeptide IEPDWR]
S/N ratios [4, 10]: 39
S/N ratios [4, 11]: 40
S/N ratios (fluorescence increase, signal-to-background) ([4]; probe 25 μM, hGzmB 20 nM, mean ± SEM, n = 3): 12
HPLC conversion (20 nM hGzmB, 2 h) [5]: 40%

{BODIPY(FL)}-IEPDWL-{Dabcyl′} [peptide H4]
conversion (cleavage) by hGzmB [8]: 82%

{BODIPY(FL)}-IEPDSL-{Dabcyl′} [peptide H3]
conversion (cleavage) by hGzmB [8]: 80%

{BODIPY(FL)}-IEPDSG-{Dabcyl′} [hexapeptide H2]
conversion (cleavage) after 2 h with 20 nM hGzmB [8]: 80%

{BODIPY(FL)}-IEPDRL-{Dabcyl′} [hexapeptide H7]
conversion (cleavage) by hGzmB [8]: 60%

{BODIPY(FL)}-IEPDAG-{Dabcyl′} [hexapeptide H1]
conversion (cleavage) after 2 h with 20 nM hGzmB [8]: 75%

Source: article PMC9061857, “A fluorogenic probe for granzyme B enables in-biopsy evaluation and screening of response to anticancer immunotherapies” (Nature Communications, 2022)
